The results in this text go back to US9260388B2, “Process for preparing alkyl pyroglutamic acids” (DOW GLOBAL TECHNOLOGIES LLC, priority 2011, dated 2016).

Where only a bound is given, the exact number is not on record here.

Format in all cases: physicochemical
Series [1] can be described thus: Shake foam test (foam height). To be noted: sodium salt, 0.1 wt % solution, shaken 20 times, t=0, average of three replicates. As to the method:
Foaming profile of the N-alkyl pyroglutamates are evaluated using a shake foam test, and evaluated against sodium laureth sulfate. For each sample, a 0.1 wt % solution is prepared by diluting 50 mg active to 50 g in water. The 0.1 wt % solution is added to a 100 mL graduated cylinder and capped. The cylinder is shaken by hand 20 times, each time the cylinder is inverted and brought back to an upright position. Foam height (in mL) is defined as the highest point of the top layer of the foam in the graduated cylinder. If the top of the foam was not flat, the midpoint of the top of the foam was reported. Foam height is read immediately after the solution settled (t=0). Three replicates are done for each sample, and the reported foam height (in mL) is the average reading of the three replicates.

Series [2] can be described thus: Water solubility of sodium salts. To be noted: for pH: pH of the sodium salt solution after neutralization. As to the method:
Selected N-alkyl pyroglutamic acids are converted into their sodium salt by neutralizing them in water with sodium hydroxide. In general, a known amount of sample is placed in a vial and a known amount of water is added. Sample is neutralized with 25 wt % sodium hydroxide in water until pH is >7. Mild heating (50° C.) is applied when necessary to aid dissolution. The final mass is recorded. The weight percent of the solution is determined by mass of the sodium salt over the total mass of solution, and multiplying by 100. The pH of the solution is recorded after neutralization. No effort was done to prepare a saturated solution.

Series [3] is described as follows: Critical micelle concentration (Kibron CMC) and surface tension, Kibron Delta-8 multichannel microtensiometer. To be noted: for Kibron CMC: sodium salt in water, twelve two-fold dilutions starting at 1 wt %; for Surface Tension (1%): sodium salt, 1 wt % in water. On the procedure:
The critical micelle concentration (Kibron CMC) and surface tension of the N-alkyl pyroglutamic acids (as Na^+ salts) and related commercial surfactants were evaluated. For each sample, a total of twelve dilutions starting at 1 wt % were prepared, reducing the concentration in each dilution by half by taking an aliquot of the previous dilution and adding the same amount of water. The surface tension of all 12 dilutions was measured using a Kibron Delta-8 multichannel microtensiometer. Sample volume for each analysis was 50 μL.

`CCC(CCCC(C)CCCC(C)C)CCN1C(=O)CCC1C(=O)O` (stereo not shown) [Example 1]: the “Shake Foam t = 0” value in series [1] worked out at 36 mL. Further, the pH in series [2] was 10.0. Moreover, in series [3], the “Kibron CMC” value turned out to be 625 ppm and the “Surface Tension (1%)” value was 38 Dynes/cm.
As for `CCCCCC(CCC)CN1C(=O)CCC1C(=O)O` (stereo not shown) [Example 2], the “Shake Foam t = 0” value in series [1] was found to be 11 mL. Also, the pH in series [2] amounted to 7.3. Besides, in series [3], the “Kibron CMC” value is above 10000 ppm and the “Surface Tension (1%)” value was found to be 34 Dynes/cm.
As for `CCCCCCCCCCC(CCCCCCCC)CN1C(=O)CCC1C(=O)O` (stereo not shown) [Example 4], the “Shake Foam t = 0” value in series [1] worked out at 29 mL. Also, the pH in series [2] came to 7.1. In addition, the Solubility in series [2] (sodium salt in water, neutralized with NaOH, no saturated solution prepared) is 15.4 wt %. Moreover, in series [3], the “Kibron CMC” value was 78 ppm and the “Surface Tension (1%)” value is listed as 29 Dynes/cm.
